# Data from ChEMBL document CHEMBL3525932, “Comparison of metabolism of sesamin and episesamin by drug-metabolizing enzymes in human liver” (Drug Metab Dispos, 2012).
# Tests used:
# [1] = molecular target: Cytochrome P450 2D6 (Homo sapiens, UniProt P10635); test: Activity of recombinant human CYP2D6 expressed in Saccharomyces cerevisiae AH22 cells assessed as enzyme-mediated catecholization at 2 to 75 uM after 15 mins by HPLC analysis in presence of NADPH; format: ADME, cell-based; conditions: ah22, 0.25 h
# [2] = tested on: Liver microsome; test: Drug metabolism in human liver microsomes assessed as episesamin monocatecholization at 5 uM after 15 mins by HPLC analysis in presence of NADPH and CYP2C9 inhibitor sulfaphenazole; format: ADME; conditions: 0.25 h
# [3] = Drug metabolism in human liver microsomes assessed as CYP450-mediated catecholization per mg of protein after 10 to 30 mins by HPLC analysis in presence of NADPH; format: ADME
# [4] = molecular target: T1, Cytochrome P450 1A2 (Homo sapiens, UniProt P05177); test: Activity of recombinant human CYP1A2 expressed in Saccharomyces cerevisiae AH22 cells assessed as enzyme-mediated episesamin dicatechol formation at 2 to 75 uM after 15 mins by HPLC analysis in presence of NADPH; format: ADME, cell-based; conditions: ah22, 0.25 h
# T1 sequence (P05177 whole entry): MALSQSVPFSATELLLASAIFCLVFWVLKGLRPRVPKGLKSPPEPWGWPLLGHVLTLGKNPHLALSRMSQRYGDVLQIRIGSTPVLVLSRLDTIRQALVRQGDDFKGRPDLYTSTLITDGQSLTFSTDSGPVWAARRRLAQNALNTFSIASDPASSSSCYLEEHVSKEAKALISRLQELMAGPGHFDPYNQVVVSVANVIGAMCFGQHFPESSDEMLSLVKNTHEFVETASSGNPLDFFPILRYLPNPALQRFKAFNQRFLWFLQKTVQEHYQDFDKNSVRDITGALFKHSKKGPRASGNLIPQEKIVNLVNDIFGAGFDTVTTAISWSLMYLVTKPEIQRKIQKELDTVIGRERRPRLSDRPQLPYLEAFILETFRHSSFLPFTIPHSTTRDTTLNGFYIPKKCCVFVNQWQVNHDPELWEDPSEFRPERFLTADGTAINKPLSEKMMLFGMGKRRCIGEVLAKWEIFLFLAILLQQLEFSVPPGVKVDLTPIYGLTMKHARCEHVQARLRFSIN
# [5] = tested on: Liver microsome; test: Drug metabolism in heat-inactivated human liver microsomes assessed as episesamin dicatechol formation at 2 to 75 uM after 15 mins by HPLC analysis in presence of NADPH; format: ADME; conditions: 0.25 h
# [6] = molecular target: T1, Cytochrome P450 1A2; test: Activity of recombinant human CYP1A2 expressed in Saccharomyces cerevisiae AH22 cells assessed as enzyme-mediated (R)-episesamin monocatechol formation at 2 to 75 uM after 15 mins by HPLC analysis in presence of NADPH; format: ADME, cell-based; conditions: ah22, 0.25 h
# [7] = tested on: Liver microsome; test: Drug metabolism in human liver microsomes assessed as (S)-episesamin monocatechol formation at 2 to 75 uM after 15 mins by HPLC analysis in presence of NADPH; format: ADME; conditions: 0.25 h
# [8] = tested on: CYP450; test: Drug metabolism in human liver microsomes assessed as CYP450-mediated catecholization after 10 to 30 mins by HPLC analysis in presence of NADPH; format: ADME
# [9] = tested on: Liver microsome; test: Drug metabolism in human liver microsomes assessed as (R)-episesamin monocatechol formation at 2 to 75 uM after 15 mins by HPLC analysis in presence of NADPH; format: ADME; conditions: 0.25 h
# [10] = tested on: CYP450; test: Drug metabolism in Sprague-Dawley rat liver microsomes assessed as CYP450-mediated catecholization after 10 to 30 mins by HPLC analysis in presence of NADPH; format: ADME
# [11] = molecular target: T2, Cytochrome P450 2C9 (Homo sapiens, UniProt P11712); test: Mechanism-based inhibition of recombinant human CYP2C9 expressed in microsomes isolated from Saccharomyces cerevisiae AH22 cells assessed as diclofenac 4'-hydroxylation up to 50 uM preincubated for 5 to 10 mins followed by substrate addition measured by HPLC analysis; format: ADME, cell-based
# [12] = molecular target: T3, Cytochrome P450 2C19 (Homo sapiens, UniProt P33261); test: Activity of recombinant human CYP2C19 expressed in Saccharomyces cerevisiae AH22 cells assessed as enzyme-mediated (S)-episesamin monocatechol formation at 2 to 75 uM after 15 mins by HPLC analysis in presence of NADPH; format: ADME, cell-based; conditions: ah22, 0.25 h
# [13] = tested on: Liver microsome; test: Drug metabolism in human liver microsomes assessed as (S)-episesamin monocatechol formation at 5 uM after 15 mins by HPLC analysis in presence of NADPH and anti-CYP2C9 antibody; format: ADME; conditions: 0.25 h
# [14] = molecular target: T3, Cytochrome P450 2C19; test: Activity of recombinant human CYP2C19 expressed in Saccharomyces cerevisiae AH22 cells assessed as enzyme-mediated episesamin dicatechol formation at 2 to 75 uM after 15 mins by HPLC analysis in presence of NADPH; format: ADME, cell-based; conditions: ah22, 0.25 h
# [15] = tested on: Liver microsome; test: Drug metabolism in human liver microsomes assessed as (S)-episesamin monocatechol formation at 5 uM after 15 mins by HPLC analysis in presence of NADPH and anti-CYP1A2 antibody; format: ADME; conditions: 0.25 h
# [16] = molecular target: T2, Cytochrome P450 2C9; test: Activity of recombinant human CYP2C9 expressed in Saccharomyces cerevisiae AH22 cells assessed as enzyme-mediated episesamin dicatechol formation at 2 to 75 uM after 15 mins by HPLC analysis in presence of NADPH; format: ADME, cell-based; conditions: ah22, 0.25 h
# [17] = tested on: Liver microsome; test: Drug metabolism in human liver microsomes assessed as episesamin monocatecholization at 5 uM after 15 mins by HPLC analysis in presence of NADPH and CYP2C19 inhibitor (+)-N-3-benzylnirvanol; format: ADME; conditions: 0.25 h
# [18] = molecular target: Cytochrome P450 3A4 (Homo sapiens, UniProt P08684); test: Activity of recombinant human CYP3A4 expressed in Saccharomyces cerevisiae AH22 cells assessed as enzyme-mediated catecholization at 2 to 75 uM after 15 mins by HPLC analysis in presence of NADPH; format: ADME, cell-based; conditions: ah22, 0.25 h
# [19] = tested on: Liver microsome; test: Drug metabolism in human liver microsomes assessed as (R)-episesamin monocatechol formation at 5 uM after 30 mins by HPLC analysis in presence of NADPH; format: ADME; conditions: 0.5 h
# [20] = tested on: Liver microsome; test: Drug metabolism in human liver microsomes assessed as (S)-episesamin monocatechol formation at 5 uM after 30 mins by HPLC analysis in presence of NADPH; format: ADME; conditions: 0.5 h
# [21] = tested on: Liver microsome; test: Drug metabolism in human liver microsomes assessed as (R)-episesamin monocatechol formation at 5 uM after 15 mins by HPLC analysis in presence of NADPH and anti-CYP2C9 antibody; format: ADME; conditions: 0.25 h
# [22] = molecular target: Cytochrome P450 2E1 (Homo sapiens, UniProt P05181); test: Activity of recombinant human CYP2E1 expressed in Saccharomyces cerevisiae AH22 cells assessed as enzyme-mediated catecholization at 2 to 75 uM after 15 mins by HPLC analysis in presence of NADPH; format: ADME, cell-based; conditions: ah22, 0.25 h
# [23] = tested on: Liver microsome; test: Drug metabolism in human liver microsomes assessed as (R)-episesamin monocatechol formation at 5 uM after 15 mins by HPLC analysis in presence of NADPH and anti-CYP1A2 antibody; format: ADME; conditions: 0.25 h
# [24] = molecular target: T2, Cytochrome P450 2C9; test: (§1) Mechanism-based inhibition of recombinant human CYP2C9 expressed in microsomes isolated from Saccharomyces cerevisiae AH22 cells assessed as diclofenac 4'-hydroxylation preincubated for 5 to 10 mins followed by substrate addition measured after 15 mins by HPLC analysis; format: ADME, cell-based
# [25] = molecular target: T4, CYP2C9 (Homo sapiens, UniProt P11712); test: as §1; format: ADME, cell-based; conditions: human, probe diclofenac (4'-hydroxylation)
# [26] = molecular target: T3, Cytochrome P450 2C19; test: Activity of recombinant human CYP2C19 expressed in Saccharomyces cerevisiae AH22 cells assessed as enzyme-mediated (R)-episesamin monocatechol formation at 2 to 75 uM after 15 mins by HPLC analysis in presence of NADPH; format: ADME, cell-based; conditions: ah22, 0.25 h
# [27] = molecular target: T2, Cytochrome P450 2C9; test: Activity of recombinant human CYP2C9 expressed in Saccharomyces cerevisiae AH22 cells assessed as enzyme-mediated (S)-episesamin monocatechol formation at 2 to 75 uM after 15 mins by HPLC analysis in presence of NADPH; format: ADME, cell-based; conditions: ah22, 0.25 h
# [28] = Drug metabolism in Sprague-Dawley rat liver microsomes assessed as CYP450-mediated catecholization per mg of protein after 10 to 30 mins by HPLC analysis in presence of NADPH; format: ADME
# [29] = molecular target: T4, CYP2C9; test: Ratio of Kinact to Ki(app) for mechanism-based inhibition of recombinant human CYP2C9 expressed in microsomes isolated from Saccharomyces cerevisiae AH22 cells assessed as diclofenac 4'-hydroxylation preincubated for 5 to 10 mins followed by substrate addition measured after 15 mins by HPLC analysis; format: ADME, cell-based; conditions: probe diclofenac (4'-hydroxylation)
# [30] = tested on: Liver microsome; test: Drug metabolism in human liver microsomes assessed as episesamin dicatechol formation at 2 to 75 uM after 15 mins by HPLC analysis in presence of NADPH; format: ADME; conditions: 0.25 h
# [31] = molecular target: T2, Cytochrome P450 2C9; test: Activity of recombinant human CYP2C9 expressed in Saccharomyces cerevisiae AH22 cells assessed as enzyme-mediated (R)-episesamin monocatechol formation at 2 to 75 uM after 15 mins by HPLC analysis in presence of NADPH; format: ADME, cell-based; conditions: ah22, 0.25 h
# [32] = tested on: Liver microsome; test: Drug metabolism in human liver microsomes assessed as sesamin monocatechol formation after 30 mins by HPLC analysis in presence of NADPH; format: ADME; conditions: 0.5 h
# [33] = molecular target: T3, Cytochrome P450 2C19; test: Activity of recombinant human CYP2C19 expressed in Saccharomyces cerevisiae AH22 cells assessed as enzyme-mediated sesamin dicatechol/monocatechol formation at 2 to 20 uM after 15 mins by HPLC analysis in presence of NADPH; format: ADME, cell-based; conditions: ah22, 0.25 h
# T3 sequence (P33261 whole entry): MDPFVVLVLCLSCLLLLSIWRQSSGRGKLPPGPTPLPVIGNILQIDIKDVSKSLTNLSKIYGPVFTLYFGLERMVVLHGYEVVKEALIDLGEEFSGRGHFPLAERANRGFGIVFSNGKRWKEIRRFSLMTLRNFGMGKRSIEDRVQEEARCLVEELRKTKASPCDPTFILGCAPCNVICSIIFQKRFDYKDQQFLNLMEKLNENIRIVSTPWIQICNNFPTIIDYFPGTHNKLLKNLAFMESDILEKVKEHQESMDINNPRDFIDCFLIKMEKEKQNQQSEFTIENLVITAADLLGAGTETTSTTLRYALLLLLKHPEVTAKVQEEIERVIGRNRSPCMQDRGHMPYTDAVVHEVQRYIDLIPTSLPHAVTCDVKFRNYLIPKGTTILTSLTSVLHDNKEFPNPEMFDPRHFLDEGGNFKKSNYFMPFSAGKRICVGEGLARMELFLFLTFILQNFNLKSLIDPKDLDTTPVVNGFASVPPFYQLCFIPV
# T4 sequence (P11712 whole entry): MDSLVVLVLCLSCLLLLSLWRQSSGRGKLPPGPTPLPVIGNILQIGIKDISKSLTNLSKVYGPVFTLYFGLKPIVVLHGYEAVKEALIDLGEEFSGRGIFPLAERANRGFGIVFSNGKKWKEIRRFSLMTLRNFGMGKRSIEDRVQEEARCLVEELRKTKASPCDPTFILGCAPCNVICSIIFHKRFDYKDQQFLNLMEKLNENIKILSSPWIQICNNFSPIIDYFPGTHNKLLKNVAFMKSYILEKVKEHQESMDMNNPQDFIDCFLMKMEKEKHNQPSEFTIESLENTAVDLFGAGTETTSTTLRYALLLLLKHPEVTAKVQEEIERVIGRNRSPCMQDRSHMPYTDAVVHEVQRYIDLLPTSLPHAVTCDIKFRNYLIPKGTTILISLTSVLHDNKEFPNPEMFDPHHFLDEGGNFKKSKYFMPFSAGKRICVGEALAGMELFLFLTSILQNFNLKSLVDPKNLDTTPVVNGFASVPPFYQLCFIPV
# T2 sequence (P11712 whole entry): as above
# Cytochrome P450 3A4, sequence (P08684 whole entry): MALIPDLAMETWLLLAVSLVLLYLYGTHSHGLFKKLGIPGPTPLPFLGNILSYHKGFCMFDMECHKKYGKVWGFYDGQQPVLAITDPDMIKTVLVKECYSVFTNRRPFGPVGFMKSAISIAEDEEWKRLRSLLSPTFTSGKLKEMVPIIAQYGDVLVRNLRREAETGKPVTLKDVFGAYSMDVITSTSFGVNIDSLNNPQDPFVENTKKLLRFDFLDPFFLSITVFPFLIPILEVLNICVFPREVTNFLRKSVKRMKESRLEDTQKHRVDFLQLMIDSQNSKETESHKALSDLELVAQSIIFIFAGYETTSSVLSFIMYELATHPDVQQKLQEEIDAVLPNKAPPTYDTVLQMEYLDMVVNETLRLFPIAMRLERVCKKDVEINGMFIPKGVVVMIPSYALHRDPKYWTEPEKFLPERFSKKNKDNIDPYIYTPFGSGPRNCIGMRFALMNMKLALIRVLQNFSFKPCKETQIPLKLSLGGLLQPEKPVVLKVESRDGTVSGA
# Cytochrome P450 2E1, sequence (P05181 whole entry): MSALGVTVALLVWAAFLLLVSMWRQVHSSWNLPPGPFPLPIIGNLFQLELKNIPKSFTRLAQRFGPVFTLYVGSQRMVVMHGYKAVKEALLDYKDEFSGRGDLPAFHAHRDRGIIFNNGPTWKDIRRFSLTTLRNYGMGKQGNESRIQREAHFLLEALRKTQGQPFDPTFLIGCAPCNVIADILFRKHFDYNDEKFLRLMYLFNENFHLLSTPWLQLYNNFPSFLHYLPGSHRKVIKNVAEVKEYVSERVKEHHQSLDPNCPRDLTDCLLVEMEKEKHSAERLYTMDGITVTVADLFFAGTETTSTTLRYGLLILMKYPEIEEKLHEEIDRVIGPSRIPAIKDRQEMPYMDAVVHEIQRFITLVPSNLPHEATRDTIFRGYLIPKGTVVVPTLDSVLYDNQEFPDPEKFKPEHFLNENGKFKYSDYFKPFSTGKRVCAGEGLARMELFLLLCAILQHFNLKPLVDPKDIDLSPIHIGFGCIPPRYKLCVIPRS
# Cytochrome P450 2D6, sequence (P10635 whole entry): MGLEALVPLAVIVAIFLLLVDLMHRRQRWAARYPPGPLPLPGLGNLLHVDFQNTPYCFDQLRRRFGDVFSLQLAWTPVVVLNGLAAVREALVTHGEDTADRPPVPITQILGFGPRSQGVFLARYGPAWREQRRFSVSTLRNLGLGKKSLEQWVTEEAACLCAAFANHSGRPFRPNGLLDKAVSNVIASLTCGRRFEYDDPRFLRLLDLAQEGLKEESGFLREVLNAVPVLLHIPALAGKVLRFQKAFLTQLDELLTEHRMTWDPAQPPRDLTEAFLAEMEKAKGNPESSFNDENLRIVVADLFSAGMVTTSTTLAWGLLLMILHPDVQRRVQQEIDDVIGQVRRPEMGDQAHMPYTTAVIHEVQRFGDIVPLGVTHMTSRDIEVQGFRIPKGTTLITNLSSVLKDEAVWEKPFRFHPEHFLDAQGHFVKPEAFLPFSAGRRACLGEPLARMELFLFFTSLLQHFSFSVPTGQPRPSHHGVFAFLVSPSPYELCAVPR
compound,measurement,setting,value
c1cc2c(cc1[C@H]1OC[C@H]3[C@@H]1CO[C@H]3c1ccc3c(c1)OCO3)OCO2 [ASARININ],Drug metabolism,[1],metabolite_not_detected
same,Drug metabolism,[2],metabolite_not_detected
same,Vmax,[3],0.4 nmol/min/mg
same,Drug metabolism,[4],metabolite_not_detected
same,Drug metabolism,[5],metabolite_not_detected
same,Drug metabolism,[6],metabolite_detected
same,Drug metabolism,[7],metabolite_detected
same,Km,[8],13 µM
same,Drug metabolism,[9],metabolite_detected
same,Km,[10],16 µM
same,inhibition (INH),[11],Dose-dependent effect
same,Drug metabolism,[12],metabolite_detected
same,Drug metabolism,[13],metabolite_not_detected
same,Drug metabolism,[14],metabolite_detected
same,Drug metabolism,[15],metabolite_detected
same,Drug metabolism,[16],metabolite_not_detected
same,Drug metabolism,[17],metabolite_detected
same,Drug metabolism,[18],metabolite_not_detected
same,Drug metabolism,[19],metabolite_detected
same,Drug metabolism,[20],metabolite_detected
same,Drug metabolism,[21],metabolite_not_detected
same,Drug metabolism,[22],metabolite_not_detected
same,Drug metabolism,[23],metabolite_not_detected
same,inhibition (INH),"[24]; human, microsomes, 0.25 h",Dose-dependent effect
same,Ki,[24]; read-out: Ki(app),6.8 µM
same,kinact at 0.25 h,[25],0.00283 s⁻¹
same,Drug metabolism,[26],metabolite_detected
same,Drug metabolism,[27],metabolite_detected
same,Vmax,[28],6.3 nmol/min/mg
same,kinact/KI at 0.25 h,[29],417 M⁻¹ s⁻¹
same,Drug metabolism,[30],metabolite_detected
same,Drug metabolism,[31],metabolite_detected
c1cc2c(cc1[C@H]1OC[C@H]3[C@@H]1CO[C@@H]3c1ccc3c(c1)OCO3)OCO2 [SESAMIN],Vmax,[3],0.81 nmol/min/mg
same,Km,[8],7.7 µM
same,Km,[10],7.1 µM
same,Drug metabolism,[32],metabolite_detected
same,Drug metabolism,[33],metabolite_detected
same,Vmax,[28],4.8 nmol/min/mg
same,kinact/KI at 0.25 h,[29],2330 M⁻¹ s⁻¹
